Target: T1, Recombinant HDAC9 isoform 4 (Homo sapiens, UniProt Q9UKV0)
T1 construct: purchased BPS Bioscience
Assay: Histone Deacetylase 9 (HDAC9) inhibition assay, fluorogenic substrate
Type: biochemical
Details: mean of a minimum of 2 experiments; 11 point 3x dilution series from 100 uM; 45 minutes incubation at room temperature; read-out: mean pIC50 of HDAC9 inhibition (converted)
From the text: Histone Deacetylase 9 (HDAC9) Inhibition Assay:
Novel histone deacetylase 9 (HDAC9) inhibitors were characterized in an in vitro biochemical functional assay. The assay measures the increased fluorescent signal due to deacetylation, by HDAC9, of a fluorogenic substrate. The commercial available substrate is Class IIa HDAC-specific and contains an acetylated lysine residue and would releases the fluorescent signal upon trypsin cleavage after deacetylation.
Specifically, test compounds diluted to various concentrations in 100% DMSO are first dispensed into 384-well assay plates. Recombinant HDAC9 isoform 4 (purchased from BPS Bioscience) in complete assay buffer (50 mM Tris-HCl, pH 8.0, 137 mM NaCl, 2.7 mM KCl, 1 mM MgCl2, 0.05% BSA & 0.005% Tween 20) were then added to each well (5 uL/well) using Multidrop Combi (Thermo Scientific), followed by 5 uL/well substrate (purchased from BPS Bioscience, 4.5 uM final). After 45 minutes incubation at room temperature, 10 uL 2× developer solution (assay buffer with 40 uM Trypsin and 20 uM Trichostatin A) was added. The plates were then incubated 1 hour at room temperature before reading in fluorescent intensity mode at 450 nm in an Envision (Perkin Elmer) plate reader. Percent Inhibition of HDAC9 activity by compounds in each test wells was calculated by normalizing to fluorescent signal in control wells containing DMSO only.
For dose response experiments, normalized data were fit by ABASE/XC50 using the equation y=a+(b−a)/(1+(10̂×/10̂c)̂d), where a is the minimum % activity, b is the maximum % activity, c is the pIC50, d is the Hill slope.

T1 sequence (Q9UKV0 1-1066 isoform Q9UKV0-5): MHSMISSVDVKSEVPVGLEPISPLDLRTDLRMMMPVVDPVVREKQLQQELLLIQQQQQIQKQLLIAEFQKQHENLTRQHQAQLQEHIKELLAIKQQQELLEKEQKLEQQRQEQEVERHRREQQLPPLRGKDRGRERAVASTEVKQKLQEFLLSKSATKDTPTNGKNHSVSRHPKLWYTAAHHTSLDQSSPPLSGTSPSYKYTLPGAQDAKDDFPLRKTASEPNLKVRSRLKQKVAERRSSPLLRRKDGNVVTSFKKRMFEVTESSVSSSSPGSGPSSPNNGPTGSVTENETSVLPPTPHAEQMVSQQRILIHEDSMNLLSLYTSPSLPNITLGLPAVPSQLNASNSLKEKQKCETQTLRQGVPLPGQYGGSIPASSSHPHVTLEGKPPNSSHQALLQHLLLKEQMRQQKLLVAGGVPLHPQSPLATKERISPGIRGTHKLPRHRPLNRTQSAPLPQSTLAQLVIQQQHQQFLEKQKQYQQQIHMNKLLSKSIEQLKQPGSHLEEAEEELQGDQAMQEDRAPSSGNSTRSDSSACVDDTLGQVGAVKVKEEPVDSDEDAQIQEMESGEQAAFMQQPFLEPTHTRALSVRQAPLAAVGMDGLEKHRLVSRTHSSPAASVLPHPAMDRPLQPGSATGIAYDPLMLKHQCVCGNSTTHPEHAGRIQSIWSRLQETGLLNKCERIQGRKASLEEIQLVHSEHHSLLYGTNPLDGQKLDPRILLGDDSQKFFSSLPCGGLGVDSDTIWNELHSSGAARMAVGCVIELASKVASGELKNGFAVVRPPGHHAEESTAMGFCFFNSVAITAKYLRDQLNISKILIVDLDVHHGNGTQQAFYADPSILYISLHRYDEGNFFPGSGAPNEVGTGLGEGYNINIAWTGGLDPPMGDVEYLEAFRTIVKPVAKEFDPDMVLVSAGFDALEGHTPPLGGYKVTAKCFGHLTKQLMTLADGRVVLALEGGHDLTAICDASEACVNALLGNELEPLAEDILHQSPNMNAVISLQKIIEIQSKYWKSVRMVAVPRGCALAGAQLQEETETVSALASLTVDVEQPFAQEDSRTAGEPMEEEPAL

IC50 [nM]	Structure (SMILES)
< 1000	CC(C)(CNC(=O)CCCc1noc(C(F)(F)F)n1)c1coc(-c2ccc(F)cc2)n1 [Example 3, N-(2-(2-(4-Fluorophenyl)oxazol-4-yl)-2-methylpropyl)-4-(5-(trifluoromethyl)-1,2,4-oxadiazol-3-yl)butanamide]
< 1000	CN(C)CCC(CNC(=O)CCCc1noc(C(F)(F)F)n1)c1coc(-c2ccc(F)cc2)n1 (stereo not shown) [Example 4, N-(4-(Dimethylamino)-2-(2-(4-fluorophenyl)oxazol-4-yl)butyl)-4-(5-(trifluoromethyl)-1,2,4-oxadiazol-3-yl)butanamide]
< 1000	CN(C)CCC(CNC(=O)CCCc1ccc(C(=O)C(F)(F)F)s1)c1coc(-c2ccc(F)cc2)n1 (stereo not shown) [Example 18, N-(4-(Dimethylamino)-2-(2-(4-fluorophenyl)oxazol-4-yl)butyl)-4-(5-(2,2,2-trifluoroacetyl)thiophen-2-yl)butanamide]

Structure (SMILES)	IC50 [nM]
CN1CCC(CNC(=O)CCCc2noc(C(F)(F)F)n2)(c2coc(-c3ccc(F)cc3)n2)CC1 [Example 5, N-((4-(2-(4-Fluorophenyl)oxazol-4-yl)-1-methylpiperidin-4-yl)methyl)-4-(5-(trifluoromethyl)-1,2,4-oxadiazol-3-yl)butanamide]	< 1000

— patent US20120322827A1, “COMPOUNDS AND METHODS” (priority 2010, published 2012)
